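Compound exposure: 48 hours, 5 concentrations, 96-well plates. GI50: concentration for 50% inhibition of growth.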 Activity calls are given as the source filed them. Cut-off read from the data, not from the text of the source: active = GI50 up to about 1.1 µM and inactive = higher.
Legend:
Assay in all cases: NCI anticancer screen, dose series, 48 h
OVCAR-3 = tested on: OVCAR-3
EKVX = tested on: EKVX
MCF7 = tested on: MCF7
OVCAR-8 = tested on: OVCAR-8
SK-OV-3 = tested on: SK-OV-3
COLO 205 = tested on: COLO 205
SNB-19 = tested on: SNB-19
HT-29 = tested on: HT-29
UACC-62 = tested on: UACC-62
SF-539 = tested on: SF-539
SK-MEL-5 = tested on: SK-MEL-5
SK-MEL-2 = tested on: SK-MEL-2
MDA-N = tested on: MDA-N
MDA-MB-231 = tested on: MDA-MB-231
KM12 = tested on: KM12
DU-145 = tested on: DU-145
NCI/ADR-RES = tested on: NCI/ADR-RES
HCT-15 = tested on: HCT-15
NCI-H23 = tested on: NCI-H23
K562 = tested on: K562
SNB-75 = tested on: SNB-75
SK-MEL-28 = tested on: SK-MEL-28
SF-268 = tested on: SF-268
OVCAR-5 = tested on: OVCAR-5
MDA-MB-435 = tested on: MDA-MB-435
SF-295 = tested on: SF-295
OVCAR-4 = tested on: OVCAR-4
NCI-H460 = tested on: NCI-H460
SR = tested on: SR
HL-60 = tested on: HL-60
M14 = tested on: M14
A498 = tested on: A498
LOX IMVI = tested on: LOX IMVI
ACHN = tested on: ACHN
Hs-578T = tested on: Hs-578T
786-0 = tested on: 786-0
RPMI-8226 = tested on: RPMI-8226
T47D = tested on: T47D
PC-3 = tested on: PC-3
UACC-257 = tested on: UACC-257
HOP-92 = tested on: HOP-92
RXF 393 = tested on: RXF 393
NCI-H226 = tested on: NCI-H226
HCC 2998 = tested on: HCC 2998
A549 = tested on: A549
CAKI-1 = tested on: CAKI-1
IGROV-1 = tested on: IGROV-1
SN12C = tested on: SN12C
SW-620 = tested on: SW-620
UO-31 = tested on: UO-31
BT-549 = tested on: BT-549
HCT-116 = tested on: HCT-116
MOLT-4 = tested on: MOLT-4
TK-10 = tested on: TK-10
U-251 = tested on: U-251
HOP-62 = tested on: HOP-62
CCRF-CEM = tested on: CCRF-CEM

SMILES: COc1ccc2c(c1)nc1n2C(c2c(F)cccc2F)SC1 (configuration not stated)
- GI50 (OVCAR-3): 62.8 µM (inactive)
- GI50 (EKVX): 36.1 µM (inactive)
- GI50 (MCF7): 38.3 µM (inactive)
- GI50 (OVCAR-8): 83.8 µM (inactive)
- GI50 (SK-OV-3): 40.8 µM (inactive)
- GI50 (COLO 205): 40.6 µM (inactive)
- GI50 (SNB-19): 21.4 µM (inactive)
- GI50 (HT-29): 47.3 µM (inactive)
- GI50 (UACC-62): 29.1 µM (inactive)
- GI50 (SF-539): 47.3 µM (inactive)
- GI50 (SK-MEL-5): 24.2 µM (inactive)
- GI50 (SK-MEL-2): 31.6 µM (inactive)
- GI50 (MDA-N): 40 µM (inactive)
- GI50 (MDA-MB-231): > 100 µM (inactive)
- GI50 (KM12): 25 µM (inactive)
- GI50 (DU-145): > 100 µM (inactive)
- GI50 (NCI/ADR-RES): 38.2 µM (inactive)
- GI50 (HCT-15): 35.2 µM
- GI50 (NCI-H23): 29 µM (inactive)
- GI50 (K562): 43.8 µM (inactive)
- GI50 (SNB-75): 39.3 µM (inactive)
- GI50 (SK-MEL-28): > 100 µM (inactive)
- GI50 (SF-268): 32.2 µM (inactive)
- GI50 (OVCAR-5): > 100 µM (inactive)
- GI50 (MDA-MB-435): 26.2 µM (inactive)
- GI50 (SF-295): 32.4 µM (inactive)
- GI50 (OVCAR-4): > 100 µM (inactive)
- GI50 (NCI-H460): 39.4 µM (inactive)
- GI50 (SR): 13.5 µM (inactive)
- GI50 (HL-60): 27.9 µM (inactive)
- GI50 (M14): 56.9 µM (inactive)
- GI50 (A498): > 100 µM (inactive)
- GI50 (LOX IMVI): 45.6 µM (inactive)
- GI50 (ACHN): > 100 µM (inactive)
- GI50 (Hs-578T): 35.2 µM (inactive)
- GI50 (786-0): 48.2 µM (inactive)
- GI50 (RPMI-8226): 30.6 µM (inactive)
- GI50 (T47D): 71.6 µM (inactive)
- GI50 (PC-3): 27.8 µM (inactive)
- GI50 (UACC-257): 45.7 µM (inactive)
- GI50 (HOP-92): 76 µM (inactive)
- GI50 (RXF 393): 53.7 µM (inactive)
- GI50 (NCI-H226): 62.7 µM (inactive)
- GI50 (HCC 2998): 55.1 µM (inactive)
- GI50 (A549): 34.8 µM (inactive)
- GI50 (CAKI-1): > 100 µM (inactive)
- GI50 (IGROV-1): 47.5 µM (inactive)
- GI50 (SN12C): > 100 µM (inactive)
- GI50 (SW-620): 60.5 µM (inactive)
- GI50 (UO-31): 56 µM (inactive)
- GI50 (BT-549): 59 µM (inactive)
- GI50 (HCT-116): 31.5 µM (inactive)
- GI50 (MOLT-4): 35.2 µM (inactive)
- GI50 (TK-10): 94.6 µM (inactive)
- GI50 (U-251): 55.7 µM (inactive)
- GI50 (HOP-62): 76.4 µM (inactive)
- GI50 (CCRF-CEM): 47.5 µM (inactive)
